Source: the supplement of paper PMC10307832

Columns and labels:
Assay in all cases: relative viability (nuclei count vs DMSO), 5 days (fraction); higher = more cells survive
NVP-TAE684 + OSI-027 = compound: COc1cc(N2CCC(N3CCN(C)CC3)CC2)ccc1Nc1ncc(Cl)c(Nc2ccccc2S(=O)(=O)C(C)C)n1 [NVP-TAE684] + COc1cccc2cc(-c3nc([C@H]4CC[C@H](C(=O)O)CC4)n4ncnc(N)c34)[nH]c12 [OSI-027] (partner 0.5 µM)
Method in brief: (§1)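 Five library-drug doses in √10 steps were combined with a fixed anchor-drug dose, or a single drug was given alone, by pin tool to lung cancer cell lines in 1536-well plates the day after seeding. Nuclei were stained and counted after 5 days. Relative viability is the nuclei count in treated wells over that in vehicle wells, taken as the median of duplicate plates.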

NVP-TAE684 + Trametinib = compound: COc1cc(N2CCC(N3CCN(C)CC3)CC2)ccc1Nc1ncc(Cl)c(Nc2ccccc2S(=O)(=O)C(C)C)n1 [NVP-TAE684] + CC(=O)Nc1cccc(-n2c(=O)n(C3CC3)c(=O)c3c(Nc4ccc(I)cc4F)n(C)c(=O)c(C)c32)c1 [Trametinib] (partner 0.02 µM)
Method in brief: as §1

Vandetanib + Pictilisib = compound: COc1cc2/c(=N/c3ccc(Br)cc3F)nc[nH]c2cc1OCC1CCN(C)CC1 [Vandetanib] + CS(=O)(=O)N1CCN(Cc2cc3nc(-c4cccc5[nH]ncc45)nc(N4CCOCC4)c3s2)CC1 [Pictilisib] (partner 1 µM)
Method in brief: as §1

NVP-TAE684 + Pictilisib = compound: COc1cc(N2CCC(N3CCN(C)CC3)CC2)ccc1Nc1ncc(Cl)c(Nc2ccccc2S(=O)(=O)C(C)C)n1 [NVP-TAE684] + CS(=O)(=O)N1CCN(Cc2cc3nc(-c4cccc5[nH]ncc45)nc(N4CCOCC4)c3s2)CC1 [Pictilisib] (partner 1 µM)
Method in brief: as §1

NVP-TAE684 + Olaparib = compound: COc1cc(N2CCC(N3CCN(C)CC3)CC2)ccc1Nc1ncc(Cl)c(Nc2ccccc2S(=O)(=O)C(C)C)n1 [NVP-TAE684] + O=C(c1cc(Cc2n[nH]c(=O)c3ccccc23)ccc1F)N1CCN(C(=O)C2CC2)CC1 [Olaparib] (partner 8 µM)
Method in brief: as §1

Cell Line: PC-14
- relative viability (NVP-TAE684 + OSI-027; first compound 0.2 µM): 0.699
- relative viability (NVP-TAE684 + OSI-027; first compound 0.6325 µM): 0.644
- relative viability (NVP-TAE684 + OSI-027; first compound 2 µM): 0.185
- relative viability (NVP-TAE684 + Trametinib; first compound 0.2 µM): 0.677
- relative viability (NVP-TAE684 + Trametinib; first compound 0.6325 µM): 0.62
- relative viability (NVP-TAE684 + Trametinib; first compound 2 µM): 0.0712
- relative viability (Vandetanib + Pictilisib; first compound 0.02 µM): 0.676
- relative viability (Vandetanib + Pictilisib; first compound 0.06325 µM): 0.594
- relative viability (Vandetanib + Pictilisib; first compound 0.2 µM): 0.35
- relative viability (Vandetanib + Pictilisib; first compound 0.6325 µM): 0.0812
- relative viability (Vandetanib + Pictilisib; first compound 2 µM): 0.0658
- relative viability (NVP-TAE684 + Pictilisib; first compound 0.2 µM): 0.726
- relative viability (NVP-TAE684 + Pictilisib; first compound 0.6325 µM): 0.589
- relative viability (NVP-TAE684 + Pictilisib; first compound 2 µM): 0.157
- relative viability (NVP-TAE684 + Olaparib; first compound 0.2 µM): 0.237
- relative viability (NVP-TAE684 + Olaparib; first compound 0.6325 µM): 0.255
- relative viability (NVP-TAE684 + Olaparib; first compound 2 µM): 0.0711

Cell Line: H3255
- relative viability (NVP-TAE684 + OSI-027; first compound 0.2 µM): 0.531
- relative viability (NVP-TAE684 + OSI-027; first compound 0.6325 µM): 0.602
- relative viability (NVP-TAE684 + OSI-027; first compound 2 µM): 0.4
- relative viability (NVP-TAE684 + Trametinib; first compound 0.2 µM): 0.569
- relative viability (NVP-TAE684 + Trametinib; first compound 0.6325 µM): 0.611
- relative viability (NVP-TAE684 + Trametinib; first compound 2 µM): 0.631
- relative viability (Vandetanib + Pictilisib; first compound 0.02 µM): 0.469
- relative viability (Vandetanib + Pictilisib; first compound 0.06325 µM): 0.392
- relative viability (Vandetanib + Pictilisib; first compound 0.2 µM): 0.386
- relative viability (Vandetanib + Pictilisib; first compound 0.6325 µM): 0.263
- relative viability (Vandetanib + Pictilisib; first compound 2 µM): 0.126
- relative viability (NVP-TAE684 + Pictilisib; first compound 0.2 µM): 0.454
- relative viability (NVP-TAE684 + Pictilisib; first compound 0.6325 µM): 0.424
- relative viability (NVP-TAE684 + Pictilisib; first compound 2 µM): 0.256
- relative viability (NVP-TAE684 + Olaparib; first compound 0.2 µM): 0.539
- relative viability (NVP-TAE684 + Olaparib; first compound 0.6325 µM): 0.532
- relative viability (NVP-TAE684 + Olaparib; first compound 2 µM): 0.407

Cell Line: NCI-H460
- relative viability (NVP-TAE684 + OSI-027; first compound 0.2 µM): 0.811
- relative viability (NVP-TAE684 + OSI-027; first compound 0.6325 µM): 0.607
- relative viability (NVP-TAE684 + OSI-027; first compound 2 µM): 0.162
- relative viability (NVP-TAE684 + Trametinib; first compound 0.2 µM): 0.173
- relative viability (NVP-TAE684 + Trametinib; first compound 0.6325 µM): 0.16
- relative viability (NVP-TAE684 + Trametinib; first compound 2 µM): 0.0273
- relative viability (Vandetanib + Pictilisib; first compound 0.02 µM): 0.351
- relative viability (Vandetanib + Pictilisib; first compound 0.06325 µM): 0.359
- relative viability (Vandetanib + Pictilisib; first compound 0.2 µM): 0.349
- relative viability (Vandetanib + Pictilisib; first compound 0.6325 µM): 0.371
- relative viability (Vandetanib + Pictilisib; first compound 2 µM): 0.331
- relative viability (NVP-TAE684 + Pictilisib; first compound 0.2 µM): 0.333
- relative viability (NVP-TAE684 + Pictilisib; first compound 0.6325 µM): 0.362
- relative viability (NVP-TAE684 + Pictilisib; first compound 2 µM): 0.295
- relative viability (NVP-TAE684 + Olaparib; first compound 0.2 µM): 0.537
- relative viability (NVP-TAE684 + Olaparib; first compound 0.6325 µM): 0.484
- relative viability (NVP-TAE684 + Olaparib; first compound 2 µM): 0.633

Cell Line: HOP-62
- relative viability (NVP-TAE684 + OSI-027; first compound 0.2 µM): 0.902
- relative viability (NVP-TAE684 + OSI-027; first compound 0.6325 µM): 0.878
- relative viability (NVP-TAE684 + Trametinib; first compound 0.2 µM): 0.404
- relative viability (NVP-TAE684 + Trametinib; first compound 0.6325 µM): 0.338
- relative viability (NVP-TAE684 + Trametinib; first compound 2 µM): 0.377
- relative viability (Vandetanib + Pictilisib; first compound 0.02 µM): 0.608
- relative viability (Vandetanib + Pictilisib; first compound 0.06325 µM): 0.504
- relative viability (Vandetanib + Pictilisib; first compound 0.2 µM): 0.669
- relative viability (Vandetanib + Pictilisib; first compound 0.6325 µM): 0.495
- relative viability (Vandetanib + Pictilisib; first compound 2 µM): 0.734
- relative viability (NVP-TAE684 + Pictilisib; first compound 0.2 µM): 0.815
- relative viability (NVP-TAE684 + Pictilisib; first compound 0.6325 µM): 0.75
- relative viability (NVP-TAE684 + Pictilisib; first compound 2 µM): 0.754
- relative viability (NVP-TAE684 + Olaparib; first compound 0.2 µM): 0.291
- relative viability (NVP-TAE684 + Olaparib; first compound 0.6325 µM): 0.33
- relative viability (NVP-TAE684 + Olaparib; first compound 2 µM): 0.811

Cell Line: HCC-78
- relative viability (NVP-TAE684 + OSI-027; first compound 0.2 µM): 0.339
- relative viability (NVP-TAE684 + OSI-027; first compound 0.6325 µM): 0.254
- relative viability (NVP-TAE684 + OSI-027; first compound 2 µM): 0.348
- relative viability (NVP-TAE684 + Trametinib; first compound 0.2 µM): 0.603
- relative viability (NVP-TAE684 + Trametinib; first compound 0.6325 µM): 0.57
- relative viability (NVP-TAE684 + Trametinib; first compound 2 µM): 0.401
- relative viability (Vandetanib + Pictilisib; first compound 0.02 µM): 0.192
- relative viability (Vandetanib + Pictilisib; first compound 0.06325 µM): 0.294
- relative viability (Vandetanib + Pictilisib; first compound 0.2 µM): 0.234
- relative viability (Vandetanib + Pictilisib; first compound 0.6325 µM): 0.231
- relative viability (Vandetanib + Pictilisib; first compound 2 µM): 0.189
- relative viability (NVP-TAE684 + Pictilisib; first compound 0.2 µM): 0.207
- relative viability (NVP-TAE684 + Pictilisib; first compound 0.6325 µM): 0.138
- relative viability (NVP-TAE684 + Pictilisib; first compound 2 µM): 0.172
- relative viability (NVP-TAE684 + Olaparib; first compound 0.2 µM): 0.727
- relative viability (NVP-TAE684 + Olaparib; first compound 0.6325 µM): 0.859
- relative viability (NVP-TAE684 + Olaparib; first compound 2 µM): 0.406

Cell Line: NCI-H2085
- relative viability (NVP-TAE684 + OSI-027; first compound 0.2 µM): 0.777
- relative viability (NVP-TAE684 + OSI-027; first compound 0.6325 µM): 0.739
- relative viability (NVP-TAE684 + OSI-027; first compound 2 µM): 0.57
- relative viability (NVP-TAE684 + Trametinib; first compound 0.2 µM): 0.579
- relative viability (NVP-TAE684 + Trametinib; first compound 0.6325 µM): 0.503
- relative viability (NVP-TAE684 + Trametinib; first compound 2 µM): 0.4
- relative viability (Vandetanib + Pictilisib; first compound 0.02 µM): 0.428
- relative viability (Vandetanib + Pictilisib; first compound 0.06325 µM): 0.421
- relative viability (Vandetanib + Pictilisib; first compound 0.2 µM): 0.398
- relative viability (Vandetanib + Pictilisib; first compound 0.6325 µM): 0.363
- relative viability (Vandetanib + Pictilisib; first compound 2 µM): 0.513
- relative viability (NVP-TAE684 + Pictilisib; first compound 0.2 µM): 0.445
- relative viability (NVP-TAE684 + Pictilisib; first compound 0.6325 µM): 0.427
- relative viability (NVP-TAE684 + Pictilisib; first compound 2 µM): 0.415
- relative viability (NVP-TAE684 + Olaparib; first compound 0.2 µM): 0.819
- relative viability (NVP-TAE684 + Olaparib; first compound 0.6325 µM): 0.754
- relative viability (NVP-TAE684 + Olaparib; first compound 2 µM): 0.714

Cell Line: COR-L23
- relative viability (NVP-TAE684 + OSI-027; first compound 0.2 µM): 0.818
- relative viability (NVP-TAE684 + OSI-027; first compound 0.6325 µM): 0.804
- relative viability (NVP-TAE684 + OSI-027; first compound 2 µM): 0.316
- relative viability (NVP-TAE684 + Trametinib; first compound 0.2 µM): 0.547
- relative viability (NVP-TAE684 + Trametinib; first compound 0.6325 µM): 0.484
- relative viability (NVP-TAE684 + Trametinib; first compound 2 µM): 0.222
- relative viability (Vandetanib + Pictilisib; first compound 0.02 µM): 0.709
- relative viability (Vandetanib + Pictilisib; first compound 0.06325 µM): 0.643
- relative viability (Vandetanib + Pictilisib; first compound 0.2 µM): 0.989
- relative viability (Vandetanib + Pictilisib; first compound 0.6325 µM): 0.813
- relative viability (Vandetanib + Pictilisib; first compound 2 µM): 0.78
- relative viability (NVP-TAE684 + Pictilisib; first compound 0.2 µM): 0.51
- relative viability (NVP-TAE684 + Pictilisib; first compound 0.6325 µM): 0.442
- relative viability (NVP-TAE684 + Pictilisib; first compound 2 µM): 0.173
- relative viability (NVP-TAE684 + Olaparib; first compound 0.2 µM): 0.273
- relative viability (NVP-TAE684 + Olaparib; first compound 0.6325 µM): 0.282
- relative viability (NVP-TAE684 + Olaparib; first compound 2 µM): 0.281
